Laboratory results: patent US20230043678A1, “USE OF 5-METHYLTETRAHYDROFOLATE” (priority 2019, published 2023)

Tested on: fetal rat heart
Test: Effects of homocysteine on fetal rats, heart slices (Example 7)
Format: in vivo, SD rats
Description: In order to investigate an effect of homocysteine on the fetal heart, SD rats were selected, male and female rats were mated in a cage at a ratio of 1:1 overnight, a vaginal plug was checked the next morning, a day when the vaginal plug was found was regarded as day 0 of pregnancy, and pregnant mice were fed alone. A 1% homocysteine (HCY) solution was used, an injection volume was calculated according to an injection volume of 1 ml/100 g, a dose was (100 mg/kg/d), on the seventh day of pregnancy, the pregnant mice were intraperitoneally injected once a day until the 17th day of pregnancy and injected once on the 19th day of pregnancy, no fluid was withdrawn during each injection, the pregnant mice were subjected to chloral hydrate anesthesia on the 20th day of pregnancy, and a fetus was obtained by cesarean section. High-dose HCY model pregnant mice were investigated by the same method as above, the dose was 200 mg/kg/d and the other conditions were the same. Fetal rats were dissected, the heart was taken and sliced for observation, and the results were as follows.

In the case of `N[C@@H](CCS)C(=O)O` [HCY, homocysteine], the “fetal rat heart histology” value (high-dose HCY 200 mg/kg/d intraperitoneal to pregnant rats) was “led to red staining of muscle cytoplasm of the fetal rats” and the “fetal rat heart histology” value (low-dose HCY 100 mg/kg/d intraperitoneal to pregnant rats) was “led to widening of myocardial trabeculae in fetal rats and atria was filled with red blood cells”.
